In patent EP0462621A2, “Use of particular compounds for manufacture of pharmaceutical formulations for treatment against various parasites, mycoplasmas, other indications and other infections” (Prendergast, Patrick Thomas, priority 1990, dated 1991):
pIC50: −log10 of the molar value.

What was measured:
[1] = test system: L donovani; assay: Amastigote-promastigote (AM-PRO) transformation, in-vitro; format: cell-based; details: Ld.
[2] = test system: L donovani; assay: Leishmania mouse/hamster models, in-vivo; details: Ld. Note: key: - no/poor activity,; + fair/moderate activity,; ++ good/excellent activity.
Excerpt: (§1) In-vitro and in-vivo models were used to test activities of a selection of many compounds. Those activities are summarized in Tables 1-3, showing variation between systems and species. Activities measured in the MP mo and HM mo models have shown the best correlation with results obtained in hamster and mouse models.

[3] = test system: L major/L mexicana; assay: Leishmania mouse/hamster models, in-vivo; details: Lm. Note: key: - no/poor activity,; + fair/moderate activity,; ++ good/excellent activity.
Excerpt: as §1

[4] = test system: T. cruzi; assay: T. cruzi mouse model, in-vivo
Excerpt: as §1

[5] = test system: T.b. brucei, T.b. gambiense and T.b. rhodesiense; assay: Isolated bloodstream trypomastigote (TRY) in-vitro screen; format: cell-based
Method: Primary screening for new trypanocides has made extensive use of rodent systems, in which host survival time is a simple indicator of drug activity. In-vitro screens have used a variety of trypomastigote types (see Table 3, below). […] Most early in-vitro screens employed a short test in which bloodstream trypomastigotes were isolated from an infected rodent and maintained for up to 24 h in a simple drug-containing media. Two significant modifications of this technique include maintaining isolated bloodstream trypomastigotes in drug-containing media for 3-4 hours at 37° C in micro-titre plates and their subsequent viability assessed by the uptake of radiolabelled precursors or motility and infectivity to mice.
In-vitro studies on isolated bloodstream trypomastigotes were also used in the rational biochemical approaches towards the chemotherapy of T. brucei infections involving inhibitors of carbohydrate catabolism salicyl hydroxamic acid plus glycerol), of polyamine synthesis (methylgyoxal bis-guanylhydrazone and - DFMO), and of surface coat glycoprotein synthesis (Tunicamycin). In these studies, activity of the compounds are shown in-vitro and in-vivo, whereas the sensitivity of isolated bloodstream trypomastigotes to toxic oxygen radicals generated by naphthoquinones was not shown by the parasites in mice. The activity of the standard anti-trypanosomals-melarsoprol, pentamidine and suramin and tested compounds according to the present invention in in-vitro systems is shown in Table 3.
as §1

[6] = test system: HIV-1; assay: In vitro HIV-1 infection of H9 cells, HIV-1 P24 antigen capture test; format: cell-based; details: doses of 3.75 µM or higher, Figure 13
Method: In vitro infection of H9 cells was carried out as described previously. Briefly, 5x10^6 H9 cells were treated with DEAE-dextran (25 µg/mt) for 20 min. Cells were then infected with 1 ml of cell free HIV-1 (1 X1 05 RT unit) for 1 hr at 37° C. Cells were then washed and incubated for 12 days in the absence or presence of various concentrations of IPA. Every 3-4 days, the medium was replaced with fresh medium containing appropriate concentrations of drug. At various days following infection, the presence of HIV-1 in the supernatant was monitored by measuring HIV-1 P24 using the antigen capture test (DuPont@, Wilmington, DE).
An investigation of the effect of IPA on in-vitro HIV-1 infection of H9 cells, a T cell line, was performed. The drug was added following 1 hr adsorption of the virus, and was maintained in the culture medium throughout the incubation period.

[7] = test system: H9 cells; assay: Cytotoxicity on uninfected H9 cells, 10 days continuous exposure; format: cell-based, human; details: read-out: ID50 - The concentration of IPA which kills 50% of the cells
Method: The "Percent Dead Cells" are taken from Tables la(d) (iii) and la(d) (v) using the 10-day value, and the therapeutic index have been calculated for each drug concentration. The results of IPA are also graphed in Figures 16 and 17. Cytotoxicity (the dashed line) is calculated as the percent live cells.
The availability of toxicity data collected in the same time frame as required for determination of antiviral effectiveness allowed determination of values for two different cell lines. Figures 16 and 17 illustrate the curves obtained by plotting the cytotoxicity of IPA (as a percent of the control cell viability) versus the percent of inhibition of HIV-1 replication (as a percent of the control titer) when H9 and 81-66-45 cells were tested. The cytotoxicity data obtained with 10 days continuous exposure, using uninfected cells, were used since 10 days was the length of time required to carry out the infectivity test. As is apparent from Tables la-(d) (ii) - la(d) (v), toxicity is much lower when the drug is added to cells for one day and then removed, or when cells are exposed for only 1 or 4 days. It is difficult to mimic in-vivo exposure times, particularly if metabolites are more toxic than the parent compound and are readily cleared in-vivo but not in-vitro.

[8] = test system: Enterocytozoon bieneusi; assay: Clinical evaluation of AIDS patients with chronic diarrhoea treated with IPA (stool examinations, endoscopic biopsies); format: in vivo; details: E. bieneusi identified prior to treatment
Excerpt: Chronic diarrhoea accompanied by wasting is one of the most frequent problems associated with HIV infection. […] A new genera and species of microspora, Enterocytozoon bieneusi, was identified in ultrastructural studies of intestinal biopsies from AIDS patients with unexplained chronic diarrhoea prior to treatment with IPA.
E. bieneusi microsporidiosis (intestinal microsporidiosis) is diagnosed with increasing frequency in AIDS patients with chronic diarrhoea of unknown origin. Forty-seven cases have been reported in the United States, Africa and Europe. […] Until now, diagnosis depended upon light and electron microscopy studies of small bowel biopsies, particularly of the jejunum. Diagnosis is suspected on histological findings either on Giemsa-stained smears and/or hematoxylin-eosin or Giemsa-stained paraffin sections: identification of oval parasites measuring 2-9 u.m and clusters of refractile spores (1-1.5 u.m) in villous enterocytes from just above the mouth of the crypts to the tips of the villi. These organisms are located in the supranuclear position of the cytoplasm. […] Recently reported recovery of spores from faeces, would simplify diagnosis. Unlike other species of microspora, E. bieneusi has not been identified from different organs such as brain and kidney. A proportion of transient diarrhoeas of unknown etiology in AIDS patients may be related to E. bieneusi. […]

[9] = test system: HIV-1 and CAEV; assay: Inhibition of virus replication, summary over viruses and cell lines of Figure 15; format: cell-based; details: depending upon the virus and cell line
Method: Selected results presented in Tables la(a), la(b) and la(c) are plotted in Figure 15.
It is apparent from Figure 15 that IPA appears to inhibit the replication of HIV-1 and CAEV at concentrations ranging from 3 to 30 µM and above. Without appropriate toxicity data it is not possible to calculate the therapeutic index at the various drug concentrations. Nevertheless, the IC50 can be seen to vary between approximately 2-6 u.M, depending upon the virus and cell line, and the ICso varies between 3-30 µM in these experiments.

[10] = test system: HIV-I; assay: Experiment la(a): macrophage cells, HIV-I, p24 antigen capture radio-immunoassay; format: cell-based; details: Human immunodeficiency virus 1, Monocyte; Monocytes; HIV-1; as read from Figure 15

CC(C)=CCNc1ncnc2c1ncn2[C@@H]1O[C@H](CO)[C@@H](O)[C@H]1O [IPA, N^6-(Δ^2-isopentenyl) adenosine]
Activity, AM-PRO transform-ation [1]: + + | Activity, mouse/ hamster models [2]: + | Activity, mouse/ hamster models [3]: - | activity, mouse model ([4]; T. cruzi strain Sonya): + | activity, mouse model ([4]; T. cruzi strain Y): ++ | activity, isolated bloodstream TRY [5]: + | inhibition of HIV-1 production [6]: more than five log inhibition | CC50 [7]: 50 µM | pathogen found on clinical evaluation [8]: fails to identify any pathogen | ICso [9]: 3 to 30 µM | pIC50 ([9]; approximately): 5.22 to 5.70 | pIC50 [10]: 5.22 | IC90 [10]: 10 µM
